{"source": "paper PMC8600089", "about": "“The development of a high-affinity conformation-sensitive antibody mimetic using a biocompatible copolymer carrier (iBody)” (The Journal of Biological Chemistry, 2021)", "key": {"[1]": {"target": "T1, recombinant extracellular part of PSMA (Homo sapiens, UniProt Q04609)", "T1 sequence (Q04609 44-750 limits assumed)": "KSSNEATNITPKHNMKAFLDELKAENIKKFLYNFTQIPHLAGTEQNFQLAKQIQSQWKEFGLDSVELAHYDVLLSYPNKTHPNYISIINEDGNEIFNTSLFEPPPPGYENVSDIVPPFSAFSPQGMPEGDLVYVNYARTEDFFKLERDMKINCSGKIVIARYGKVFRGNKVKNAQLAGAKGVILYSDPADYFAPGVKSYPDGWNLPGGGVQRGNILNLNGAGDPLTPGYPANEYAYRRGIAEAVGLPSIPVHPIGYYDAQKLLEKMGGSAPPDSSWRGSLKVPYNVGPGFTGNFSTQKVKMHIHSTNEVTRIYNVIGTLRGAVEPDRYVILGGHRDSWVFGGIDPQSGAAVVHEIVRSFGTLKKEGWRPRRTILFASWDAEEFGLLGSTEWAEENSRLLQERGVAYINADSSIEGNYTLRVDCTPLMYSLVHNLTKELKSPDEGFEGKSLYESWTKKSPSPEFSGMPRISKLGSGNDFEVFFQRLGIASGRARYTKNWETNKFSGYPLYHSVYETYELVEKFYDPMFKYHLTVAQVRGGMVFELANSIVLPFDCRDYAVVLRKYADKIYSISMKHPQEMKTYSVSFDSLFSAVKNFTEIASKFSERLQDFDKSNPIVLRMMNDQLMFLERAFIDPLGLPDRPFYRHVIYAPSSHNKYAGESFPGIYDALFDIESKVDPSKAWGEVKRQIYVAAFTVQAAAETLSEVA", "experiment": "Competition ELISA: iBody 1 binding to PSMA versus PSMA inhibitors"}, "PSMA (AviPSMA)": {"target": "PSMA (AviPSMA) (Homo sapiens, UniProt Q04609)", "sequence (Q04609 44-750 limits assumed)": "as above", "experiment": "PSMA activity assay (HPLC, substrate pteroyl-di-L-glutamate)", "assay_type": "biochemical"}, "[2]": {"target": "T1, recombinant extracellular part of PSMA", "experiment": "ELISA with immobilized PSMA"}}, "note": "Where two headings read alike, the source gives them in different places. Starred links: 1 amine or outer side, 2 acyl side, 3 side chain; linkers in the order of their positions; H or OH if unused. Positions of bridges follow the written chain, without caps; N, C: chain ends. Residues, ends and D or L forms follow the SMILES beside them. Groups on a side chain read outwards from the residue. *: point of attachment. PEG12 = NCCOCCOCCOCCOCCOCCOCCOCCOCCOCCOCCOCCOCCC(=O)O; Biotin = O=C1N[C@H]2[C@H](CS[C@H]2CCCCC(=O)*)N1; TBMB = c1c(C[*:1])cc(C[*:3])cc1C[*:2]", "data": [{"compound": "O=C(O)CCC(CP(=O)(O)O)C(=O)O", "note": "(centres unmarked) [2-PMPA, 2-(phosphonomethyl)pentane-1,5-dioic acid]", "values": [{"measurement": "competition with binding of iBody 1 to PSMA on ELISA (in words)", "setting": "[1]", "value": "outcompeted"}]}, {"compound": "CC(=O)N[C@H]1CSCc2cc3cc(c2)CSC[C@H](NC(=O)[C@H](CCC(=O)O)NC(=O)[C@H](CC(=O)O)NC(=O)[C@H](CC(=O)O)NC1=O)C(=O)N1CCC[C@H]1C(=O)N[C@@H](CC(=O)O)C(=O)N[C@@H](Cc1ccc(O)cc1)C(=O)N[C@@H](C(C)C)C(=O)N[C@H](C(=O)NCC(=O)NCC(=O)N[C@@H](CO)C(=O)NCC(=O)N[C@@H](CCCCNC(=O)CCOCCOCCOCCOCCOCCOCCOCCOCCOCCOCCOCCOCCNC(=O)CCCC[C@@H]1SC[C@@H]2NC(=O)N[C@@H]21)C(N)=O)CSC3", "note": "[Peptide 1] (Ac-CDDECPDYVCGGSGK([PEG12-Biotin])-NH2; linker 1-5-10 via TBMB)", "values": [{"measurement": "IC50", "setting": "PSMA (AviPSMA); cell gives μM under a head in nM, 20-min incubation, 37 °C, n = 3", "value": "> 50", "unit": "µM"}, {"measurement": "inhibition at 50 µM", "setting": "PSMA (AviPSMA); in 50μM", "value": 10, "unit": "%"}, {"measurement": "EC50", "setting": "[2]", "value": "> 5", "unit": "µM"}]}, {"compound": "phosphate", "values": [{"measurement": "competition with binding of iBody 1 to PSMA on ELISA (in words)", "setting": "[1]; iBody 1 (5 nM per legend), inhibitor pre-incubated 30 min, then iBody 60 min at RT, representative of >3 experiments, n = 3", "value": "outcompeted"}]}, {"compound": "poly(HPMA-co-Ma-β-Ala-ATTO488-co-Ma-β-Ala-NH-ED-biotin) [iBody 3, reference compound]", "values": [{"measurement": "Ratio: value on layer with PSMA divided by value on layer lacking PSMA", "setting": "[2]; 8 nM iBody", "value": 0.9}, {"measurement": "Ratio: value on layer with PSMA divided by value on layer lacking PSMA", "setting": "[2]; 40 nM iBody", "value": 1.3}, {"measurement": "Ratio: value on layer with PSMA divided by value on layer lacking PSMA", "setting": "[2]; 200 nM iBody", "value": 1.1}, {"measurement": "Ratio: value on layer with PSMA divided by value on layer lacking PSMA", "setting": "[2]; 1000 nM iBody", "value": 0.8}, {"measurement": "Ratio: value on layer with PSMA divided by value on layer lacking PSMA", "setting": "[2]; 5000 nM iBody", "value": 0.8}, {"measurement": "specific binding to immobilized PSMA compared with control layer (in words)", "setting": "[2]; ELISA, layer with vs without PSMA", "value": "no specific binding"}]}]}
